Experimental data taken from PubChem BioAssay AID330 (DTP/NCI, 2004).
Values joined by “and” are separate entries in the source; they are usually repeats but may differ in a detail not shown here. Equal values may be shown once. Inconclusive results and toxic doses are left out.

System: P388 leukemia ip, CD2F1 mice, survival T/C
Test: NCI In Vivo Anticancer Drug Screen. Data for tumor model P388 Leukemia (intraperitoneal) in CD2F1 (CDF1) mice
Details: endpoint: median survival time, higher = longer survival
How it was run: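 Mice carrying the transplanted tumor received test compound or vehicle. Survival was recorded in each group, and the value is the treated-group measurement divided by that of the vehicle-treated control group.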

[1] = dose: 12.5 mg/kg/injection, schedule: Q01DX001 (ip), vehicle: Klucel (hydroxypropylcellulose) (HPC)
[2] = dose: 25.0 mg/kg/injection, schedule: Q01DX001 (ip), vehicle: Klucel (hydroxypropylcellulose) (HPC)
[3] = dose: 50.0 mg/kg/injection, schedule: Q01DX001 (ip), vehicle: Klucel (hydroxypropylcellulose) (HPC)
[4] = dose: 100.0 mg/kg/injection, schedule: Q04DX003 (ip), vehicle: saline with Tween-80
[5] = dose: 200.0 mg/kg/injection, schedule: Q04DX003 (ip), vehicle: saline with Tween-80
[6] = dose: 400.0 mg/kg/injection, schedule: Q04DX003 (ip), vehicle: saline with Tween-80
[7] = dose: 50.0 mg/kg/injection, schedule: Q01DX005 (ip), vehicle: saline
[8] = dose: 12.5 mg/kg/injection, schedule: Q01DX005 (ip), vehicle: saline
[9] = dose: 60.0 mg/kg/injection, schedule: Q01DX005 (ip), vehicle: saline
[10] = dose: 120.0 mg/kg/injection, schedule: Q01DX005 (ip), vehicle: saline
[11] = dose: 240.0 mg/kg/injection, schedule: Q01DX005 (ip), vehicle: saline
[12] = dose: 50.0 mg/kg/injection, schedule: Q01DX005 (ip), vehicle: saline with Tween-80
[13] = dose: 100.0 mg/kg/injection, schedule: Q01DX005 (ip), vehicle: saline with Tween-80
[14] = dose: 200.0 mg/kg/injection, schedule: Q01DX005 (ip), vehicle: saline with Tween-80
[15] = dose: 50.0 mg/kg/injection, schedule: Q01DX005 (ip), vehicle: Klucel (hydroxypropylcellulose) (HPC)
[16] = dose: 100.0 mg/kg/injection, schedule: Q01DX005 (ip), vehicle: Klucel (hydroxypropylcellulose) (HPC)
[17] = dose: 200.0 mg/kg/injection, schedule: Q01DX005 (ip), vehicle: Klucel (hydroxypropylcellulose) (HPC)

CC(=O)NC(CCl)(OC(C)=O)C(=O)OCc1ccc([N+](=O)[O-])cc1 (stereo not given)
T/C [1]: 102 % of control | T/C [2]: 108 % of control | T/C [3]: 100 % of control | T/C [4]: 106 % of control | T/C [5]: 120 % of control | T/C [6]: 100 % of control

Cc1cc2nc(CN(CCO)CCO)[nH]c2cc1C
T/C [7]: 100 % of control | T/C (dose: 100.0 mg/kg/injection, schedule: Q01DX005 (ip), vehicle: saline): 98 % of control | T/C (dose: 200.0 mg/kg/injection, schedule: Q01DX005 (ip), vehicle: saline): 98 % of control

CN1CCC(CCl)C(c2ccccc2)C1 (stereo not given)
T/C [8]: 100 % of control | T/C (dose: 25.0 mg/kg/injection, schedule: Q01DX005 (ip), vehicle: saline): 100 % of control | T/C [7]: 107 % of control

Cc1ccn(C)n1
T/C [9]: 96 % of control | T/C [10]: 93 % of control | T/C [11]: 100 % of control

O=c1c2ccccc2nc(-c2ccc(Cl)cc2)n1O
T/C [12]: 92 % of control | T/C [13]: 88 % of control

O=C(Nc1ccc(NC(=O)Nc2cc(C(F)(F)F)ccc2Oc2ccc(Cl)c(Cl)c2)cc1)Nc1cc(C(F)(F)F)ccc1Oc1ccc(Cl)c(Cl)c1
T/C (dose: 60.0 mg/kg/injection, schedule: Q01DX005 (ip), vehicle: Klucel (hydroxypropylcellulose) (HPC)): 91 % of control | T/C (dose: 120.0 mg/kg/injection, schedule: Q01DX005 (ip), vehicle: Klucel (hydroxypropylcellulose) (HPC)): 98 % of control | T/C (dose: 240.0 mg/kg/injection, schedule: Q01DX005 (ip), vehicle: Klucel (hydroxypropylcellulose) (HPC)): 94 % of control

CCC(=O)Oc1ccc(N=Nc2ccc(O)c(/C=N\NC(=O)CNc3ccccc3)c2)cc1
T/C (dose: 100.0 mg/kg/injection, schedule: Q01DX001 (ip), vehicle: saline with Tween-80): 88 % of control | T/C (dose: 200.0 mg/kg/injection, schedule: Q01DX001 (ip), vehicle: saline with Tween-80): 86 % of control | T/C (dose: 400.0 mg/kg/injection, schedule: Q01DX001 (ip), vehicle: saline with Tween-80): 100 % of control

N=C(N)c1ccc2cc(/C=C/c3cc4ccc(C(=N)N)cc4o3)[nH]c2c1
T/C (dose: 50.0 mg/kg/injection, schedule: Q04DX003 (ip), vehicle: saline): 157 % of control | T/C (dose: 50.0 mg/kg/injection, schedule: Q04DX003 (ip), vehicle: suspension in saline): 208 % of control

O=C(Cc1ccccc1)CC(CC(=O)Cc1ccccc1)c1ccccc1
T/C [12]: 94 % of control | T/C [13]: 89 % of control | T/C [14]: 103 % of control

Cc1ccc(OCC(O)CN2CCN(c3ccc(Cl)cc3)CC2)cc1 (stereo not given)
T/C (dose: 100.0 mg/kg/injection, schedule: Q01DX009 (ip), vehicle: saline sonified): 100 % of control | T/C (dose: 200.0 mg/kg/injection, schedule: Q01DX009 (ip), vehicle: saline sonified): 95 % of control | T/C (dose: 400.0 mg/kg/injection, schedule: Q01DX009 (ip), vehicle: saline sonified): 90 % of control

Cc1cc2cc(CN)ccc2n1C
T/C (dose: 100.0 mg/kg/injection, schedule: Q01DX001 (ip), vehicle: Klucel (hydroxypropylcellulose) (HPC)): 103 % of control

c1ccc2c(c1)ccc1[nH]c3ccc4ccccc4c3c12
T/C (dose: 1.56 mg/kg/injection, schedule: Q01DX005 (ip), vehicle: Klucel (hydroxypropylcellulose) (HPC)): 100 % of control and 109 % of control and 111 % of control | T/C (dose: 3.12 mg/kg/injection, schedule: Q01DX005 (ip), vehicle: Klucel (hydroxypropylcellulose) (HPC)): 107 % of control and 116 % of control and 117 % of control

CCCCCc1cc(O)cc2c1Oc1cc(O)cc(C(=O)CCCC)c1C(=O)O2
T/C [12]: 98 % of control | T/C [13]: 100 % of control | T/C [14]: 107 % of control

CC1C=CCC2C(=O)c3cccc([N+](=O)[O-])c3C(=O)C12 (stereo not given)
T/C [15]: 100 % of control | T/C [16]: 96 % of control | T/C [17]: 92 % of control

C=CC1CCCC[N+]1(C)Cc1ccccc1 (stereo not given)
T/C (dose: 6.25 mg/kg/injection, schedule: Q01DX005 (ip), vehicle: saline): 94 % of control | T/C [8]: 98 % of control

C1=C2CCc3ccc(o3)CCC(=C1)O2
T/C [12]: 100 % of control | T/C [13]: 94 % of control | T/C [14]: 93 % of control

CC1(C)C[C@@]2(F)C(=O)NC(=O)N[C@@H]12
T/C [1]: 103 % of control | T/C [2]: 106 % of control | T/C [3]: 99 % of control

Cc1cc(N)cc(N)c1O
T/C (dose: 1.56 mg/kg/injection, schedule: Q01DX009 (ip), vehicle: saline): 97 % of control | T/C (dose: 3.12 mg/kg/injection, schedule: Q01DX009 (ip), vehicle: saline): 95 % of control | T/C (dose: 6.25 mg/kg/injection, schedule: Q01DX009 (ip), vehicle: saline): 97 % of control

Cc1nc(Cl)c2c3c(sc2n1)CCCC3
T/C (dose: 18.75 mg/kg/injection, schedule: Q01DX001 (ip), vehicle: saline sonified): 95 % of control | T/C (dose: 37.5 mg/kg/injection, schedule: Q01DX001 (ip), vehicle: saline sonified): 100 % of control | T/C (dose: 75.0 mg/kg/injection, schedule: Q01DX001 (ip), vehicle: saline sonified): 100 % of control

CCCCCCCCCC[N+](C)(C)CCO
T/C (dose: 12.5 mg/kg/injection, schedule: Q01DX009 (ip), vehicle: saline): 118 % of control | T/C (dose: 25.0 mg/kg/injection, schedule: Q01DX009 (ip), vehicle: saline): 109 % of control | T/C (dose: 50.0 mg/kg/injection, schedule: Q01DX009 (ip), vehicle: saline): 116 % of control

C=C(CBr)C(=O)OCC
T/C (dose: 7.5 mg/kg/injection, schedule: Q01DX005 (ip), vehicle: saline with Tween-80): 103 % of control | T/C (dose: 15.0 mg/kg/injection, schedule: Q01DX005 (ip), vehicle: saline with Tween-80): 88 % of control | T/C (dose: 30.0 mg/kg/injection, schedule: Q01DX005 (ip), vehicle: saline with Tween-80): 103 % of control

CC1(C)N(/N=C/c2ccccc2)C(c2ccccc2)C(c2ccccc2)N1/N=C/c1ccccc1 (stereo not given)
T/C [15]: 86 % of control | T/C [16]: 89 % of control | T/C [17]: 87 % of control

COc1ccc2ccc(CO)cc2c1OC
T/C (dose: 25.0 mg/kg/injection, schedule: Q01DX009 (ip), vehicle: other): 98 % of control | T/C (dose: 50.0 mg/kg/injection, schedule: Q01DX009 (ip), vehicle: other): 92 % of control | T/C (dose: 100.0 mg/kg/injection, schedule: Q01DX009 (ip), vehicle: other): 90 % of control | T/C (dose: 200.0 mg/kg/injection, schedule: Q01DX009 (ip), vehicle: other): 99 % of control | T/C (dose: 400.0 mg/kg/injection, schedule: Q01DX009 (ip), vehicle: other): 90 % of control

CCCCCCCCCSc1ccc(C(=O)O)cc1
T/C (dose: 100.0 mg/kg/injection, schedule: Q01DX009 (ip), vehicle: saline with Tween-80): 109 % of control | T/C (dose: 200.0 mg/kg/injection, schedule: Q01DX009 (ip), vehicle: saline with Tween-80): 103 % of control | T/C (dose: 400.0 mg/kg/injection, schedule: Q01DX009 (ip), vehicle: saline with Tween-80): 105 % of control

CN(C)C1(C)CCC2C3CCC4=CC(=O)CCC4(C)C3CCC21C (stereo not given)
T/C [15]: 97 % of control | T/C [16]: 97 % of control | T/C [17]: 100 % of control

CC(CCc1ccccc1)NC1=NCCO1 (stereo not given)
T/C [4]: 95 % of control | T/C [5]: 100 % of control | T/C [6]: 90 % of control

Nc1nnc2nc(CC(=O)c3ccc([N+](=O)[O-])cc3)c(CC(=O)c3ccc([N+](=O)[O-])cc3)nn12
T/C [9]: 98 % of control | T/C [10]: 100 % of control | T/C [11]: 100 % of control

CCOc1ccccc1NC(=O)NCC(=O)NNC(=O)Nc1ccc(Cl)c([N+](=O)[O-])c1
T/C (dose: 60.0 mg/kg/injection, schedule: Q01DX005 (ip), vehicle: saline with Tween-80): 93 % of control | T/C (dose: 120.0 mg/kg/injection, schedule: Q01DX005 (ip), vehicle: saline with Tween-80): 98 % of control | T/C (dose: 240.0 mg/kg/injection, schedule: Q01DX005 (ip), vehicle: saline with Tween-80): 92 % of control

C=CCNC(=S)Nc1ncn[nH]1
T/C [15]: 95 % of control | T/C [16]: 104 % of control
